# Reference: US20220411471A1, “CELL-PERMEABLE CYCLIC PEPTIDES AND USES THEREOF” (Unnatural Products Inc., priority 2019, published 2022)
# Non-standard residues stand in square brackets, D forms with d. Residues, ends and D or L forms follow the SMILES beside them. Phe(4-Cl) = N[C@@H](Cc1ccc(Cl)cc1)C(=O)O; Phe(4-F) = N[C@@H](Cc1ccc(F)cc1)C(=O)O; 3Pal = N[C@@H](Cc1cccnc1)C(=O)O; 2Thi = N[C@@H](Cc1cccs1)C(=O)O; NMeL = CN[C@@H](CC(C)C)C(=O)O; dNMeV = CN[C@@H](C(=O)O)C(C)C; NMeNle = CCCC[C@H](NC)C(=O)O; Tle = CC(C)(C)[C@H](N)C(=O)O; dPip = O=C(O)[C@H]1CCCCN1; NMeA = CN[C@@H](C)C(=O)O; Nme = COCCNCC(=O)O
# Molecular target: T1, Human MDM2 (HDM2) 1-116 (Homo sapiens, UniProt Q00987)
# T1 construct: Human MDM2 (HDM2) 1-116
# Assay: Fluorescence polarization assay, MDM2/p53 (Table 3)
# Assay type: binding
# Protocol: (§1) Human MDM2 (HDM2) 1-116 (20 μL) and FITC-labeled p53 (18-26), 50 nM and 10 nM respectively in 10 mM Tris, 50 mM NaCl, 0.01% Tween20, and 1 mM DTT at pH 7.4 were dispensed into an opaque, black, 384 well plate. Compounds dissolved in DMSO were pin transferred (˜200 nL) to the 384 well plate containing the MDM2/p53 solution. After incubation for 10 minutes, the fluorescence polarization was read on a Molecular Devices SpectraMax plate reader equipped with a Fluorescein FP cartridge. In addition to probe alone (positive control) and probe/MDM2 (negative control), a titration of linear p53(18-26) was included on every plate as an additional control. IC50 values were fit using either Prism or Collaborative Drug Discovery.
# as §1, with “and FAM-labeled RFMDYWEGL-NH2,” for “and FITC-labeled p53 (18-26),”, “NaCl, 0.010%” for “NaCl, 0.01%”, “transferred (˜100-200” for “transferred (˜200”, “for 60” for “for 10”
# T1 sequence (Q00987 1-116): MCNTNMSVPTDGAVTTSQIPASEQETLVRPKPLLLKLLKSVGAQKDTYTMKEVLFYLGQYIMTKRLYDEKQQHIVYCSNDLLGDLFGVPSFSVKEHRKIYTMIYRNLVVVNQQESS
row,SMILES,IC50 [nM]
1,"CC(C)C[C@H]1C(=O)N[C@@H](CC(=O)O)C(=O)N[C@@H](Cc2c[nH]c3ccccc23)C(=O)N[C@@H](CCC(=O)O)C(=O)N[C@@H](Cc2ccccc2)C(=O)N2CCC[C@@H]2C(=O)N2CCC[C@H]2C(=O)N[C@@H](Cc2ccc(F)cc2)C(=O)N[C@@H](CCC(=O)O)C(=O)N[C@@H](Cc2ccc(Cl)cc2)C(=O)N1C [Compound 6, [H]OC(=O)CC[C@@H]1NC(=O)[C@H](Cc2cn([H])c3ccccc23)NC(=O)[C@H](CC(=O)O[H])NC(=O)[C@H](CC(C)C)N(C)C(=O)[C@H](Cc2ccc(Cl)cc2)NC(=O)[C@H](CCC(=O)O[H])NC(=O)[C@H](Cc2ccc(F)cc2)NC(=O)[C@@H]2CCCN2C(=O)[C@H]2CCCN2C(=O)[C@H](Cc2ccccc2)NC1=O] (cyclo([Phe(4-F)]E[Phe(4-Cl)][NMeL]DWEF[dP]P))",< 1000
2,"CCCC[C@H]1C(=O)N[C@@H](Cc2ccccc2)C(=O)N2CCC[C@@H]2C(=O)N2CCC[C@H]2C(=O)N[C@@H](Cc2ccccc2)C(=O)N(C)[C@@H](CCCC)C(=O)N[C@@H](Cc2c[nH]c3ccccc23)C(=O)N(C)[C@@H](CC(C)C)C(=O)N[C@@H](CC(=O)O)C(=O)N[C@@H](Cc2c[nH]c3ccccc23)C(=O)N1C [Compound 7, [H]OC(=O)C[C@@H]1NC(=O)[C@H](CC(C)C)N(C)C(=O)[C@H](Cc2cn([H])c3ccccc23)NC(=O)[C@H](CCCC)N(C)C(=O)[C@H](Cc2ccccc2)NC(=O)[C@@H]2CCCN2C(=O)[C@H]2CCCN2C(=O)[C@H](Cc2ccccc2)NC(=O)[C@H](CCCC)N(C)C(=O)[C@H](Cc2cn([H])c3ccccc23)NC1=O] (cyclo(F[NMeNle]W[NMeL]DW[NMeNle]F[dP]P))",≥ 5000
3,"C[C@H]1C(=O)N[C@@H](Cc2ccc(Cl)cc2)C(=O)N2CCCC[C@@H]2C(=O)N2CCC[C@H]2C(=O)N[C@@H](Cc2ccccc2)C(=O)N[C@@H](CCC(=O)O)C(=O)N[C@@H](Cc2ccc(O)cc2)C(=O)N2CCC[C@@H]2C(=O)N(C)[C@@H](C)C(=O)N[C@@H](Cc2ccc(F)cc2)C(=O)N1C [Compound 8, [H]OC(=O)CC[C@@H]1NC(=O)[C@H](Cc2ccccc2)NC(=O)[C@@H]2CCCN2C(=O)[C@H]2CCCCN2C(=O)[C@H](Cc2ccc(Cl)cc2)NC(=O)[C@H](C)N(C)C(=O)[C@H](Cc2ccc(F)cc2)NC(=O)[C@H](C)N(C)C(=O)[C@H]2CCCN2C(=O)[C@H](Cc2ccc(O[H])cc2)NC1=O] (cyclo(EY[dP][NMeA][Phe(4-F)][NMeA][Phe(4-Cl)][dPip]PF))",2500 to 5000
4,"C[C@H]1C(=O)N[C@@H](Cc2ccc(F)cc2)C(=O)N[C@@H](CCC(=O)O)C(=O)N[C@@H](Cc2ccccc2)C(=O)N2CCCC[C@@H]2C(=O)N2CCC[C@H]2C(=O)N[C@@H](Cc2ccccc2)C(=O)N[C@@H](CCC(=O)O)C(=O)N[C@@H](Cc2c[nH]c3ccccc23)C(=O)N2CCC[C@@H]2C(=O)N1C [Compound 9, [H]OC(=O)CC[C@@H]1NC(=O)[C@H](Cc2ccccc2)NC(=O)[C@@H]2CCCN2C(=O)[C@H]2CCCCN2C(=O)[C@H](Cc2ccccc2)NC(=O)[C@H](CCC(=O)O[H])NC(=O)[C@H](Cc2ccc(F)cc2)NC(=O)[C@H](C)N(C)C(=O)[C@H]2CCCN2C(=O)[C@H](Cc2cn([H])c3ccccc23)NC1=O] (cyclo(EF[dPip]PFEW[dP][NMeA][Phe(4-F)]))",< 1000
5,"C[C@H]1C(=O)N[C@@H](Cc2ccc(Cl)cc2)C(=O)N2CCCC[C@@H]2C(=O)N2CCC[C@H]2C(=O)N[C@@H](Cc2ccccc2)C(=O)N[C@@H](C(C)(C)C)C(=O)N[C@@H](Cc2ccc(O)cc2)C(=O)N2CCC[C@@H]2C(=O)N(C)[C@@H](C)C(=O)N[C@@H](Cc2ccc(F)cc2)C(=O)N1C [Compound 10, [H]Oc1ccc(C[C@@H]2NC(=O)[C@@H](NC(=O)[C@H](Cc3ccccc3)NC(=O)[C@@H]3CCCN3C(=O)[C@H]3CCCCN3C(=O)[C@H](Cc3ccc(Cl)cc3)NC(=O)[C@H](C)N(C)C(=O)[C@H](Cc3ccc(F)cc3)NC(=O)[C@H](C)N(C)C(=O)[C@H]3CCCN3C2=O)C(C)(C)C)cc1] (cyclo(F[Tle]Y[dP][NMeA][Phe(4-F)][NMeA][Phe(4-Cl)][dPip]P))",1000 to 2500
6,"C[C@H]1C(=O)N[C@@H](Cc2ccc(Cl)cc2)C(=O)N2CCCC[C@@H]2C(=O)N2CCC[C@H]2C(=O)N[C@@H](Cc2ccccc2)C(=O)N[C@@H](C(C)(C)C)C(=O)N[C@@H](Cc2ccc(O)cc2)C(=O)N2CCC[C@@H]2C(=O)N(C)[C@@H](C)C(=O)N[C@@H](Cc2ccc(F)cc2)C(=O)N1C [Compound 11, [H]Oc1ccc(C[C@@H]2NC(=O)[C@@H](NC(=O)[C@H](Cc3ccccc3)NC(=O)[C@@H]3CCCN3C(=O)[C@H]3CCCCN3C(=O)[C@H](Cc3ccc(Cl)cc3)NC(=O)[C@H](C)N(C)C(=O)[C@H](Cc3ccc(F)cc3)NC(=O)[C@H](C)N(C)C(=O)[C@H]3CCCN3C2=O)C(C)(C)C)cc1] (cyclo(F[Tle]Y[dP][NMeA][Phe(4-F)][NMeA][Phe(4-Cl)][dPip]P))",≥ 5000
7,"COCCN1CC(=O)N(C)[C@@H](C)C(=O)N[C@@H](Cc2ccc(F)cc2)C(=O)N(C)[C@@H](C)C(=O)N[C@@H](Cc2ccc(Cl)cc2)C(=O)N(C)[C@H](C(C)C)C(=O)N2CCC[C@H]2C(=O)N[C@@H](Cc2ccccc2)C(=O)N[C@@H](C(C)(C)C)C(=O)N[C@@H](Cc2ccc(O)cc2)C1=O [Compound 14, [H]Oc1ccc(C[C@@H]2NC(=O)[C@@H](NC(=O)[C@H](Cc3ccccc3)NC(=O)[C@@H]3CCCN3C(=O)[C@@H](C(C)C)N(C)C(=O)[C@H](Cc3ccc(Cl)cc3)NC(=O)[C@H](C)N(C)C(=O)[C@H](Cc3ccc(F)cc3)NC(=O)[C@H](C)N(C)C(=O)CN(CCOC)C2=O)C(C)(C)C)cc1] (cyclo(F[Tle]Y[Nme][NMeA][Phe(4-F)][NMeA][Phe(4-Cl)][dNMeV]P))",1000 to 2500
8,"C[C@H]1C(=O)N[C@@H](Cc2ccc(Cl)cc2)C(=O)N2CCCC[C@@H]2C(=O)N2CCC[C@H]2C(=O)N[C@@H](Cc2ccc(O)cc2)C(=O)N[C@@H](CCC(=O)O)C(=O)N[C@@H](Cc2cccnc2)C(=O)N2CCC[C@@H]2C(=O)N(C)[C@@H](C)C(=O)N[C@@H](Cc2ccc(F)cc2)C(=O)N1C [Compound 15, [H]OC(=O)CC[C@@H]1NC(=O)[C@H](Cc2ccc(O[H])cc2)NC(=O)[C@@H]2CCCN2C(=O)[C@H]2CCCCN2C(=O)[C@H](Cc2ccc(Cl)cc2)NC(=O)[C@H](C)N(C)C(=O)[C@H](Cc2ccc(F)cc2)NC(=O)[C@H](C)N(C)C(=O)[C@H]2CCCN2C(=O)[C@H](Cc2cccnc2)NC1=O] (cyclo([3Pal][dP][NMeA][Phe(4-F)][NMeA][Phe(4-Cl)][dPip]PYE))",1000 to 2500
9,"C[C@H]1C(=O)N[C@@H](Cc2ccc(Cl)cc2)C(=O)N2CCCC[C@@H]2C(=O)N2CCC[C@H]2C(=O)N[C@@H](Cc2cccnc2)C(=O)N[C@@H](CCC(=O)O)C(=O)N[C@@H](Cc2ccc(O)cc2)C(=O)N2CCC[C@@H]2C(=O)N(C)[C@@H](C)C(=O)N[C@@H](Cc2ccc(F)cc2)C(=O)N1C [Compound 16, [H]OC(=O)CC[C@@H]1NC(=O)[C@H](Cc2cccnc2)NC(=O)[C@@H]2CCCN2C(=O)[C@H]2CCCCN2C(=O)[C@H](Cc2ccc(Cl)cc2)NC(=O)[C@H](C)N(C)C(=O)[C@H](Cc2ccc(F)cc2)NC(=O)[C@H](C)N(C)C(=O)[C@H]2CCCN2C(=O)[C@H](Cc2ccc(O[H])cc2)NC1=O] (cyclo([3Pal]EY[dP][NMeA][Phe(4-F)][NMeA][Phe(4-Cl)][dPip]P))",< 1000
10,"COCCN1CC(=O)N(C)[C@@H](C)C(=O)N[C@@H](Cc2ccc(F)cc2)C(=O)N(C)[C@@H](C)C(=O)N[C@@H](Cc2ccc(Cl)cc2)C(=O)N(C)[C@H](C(C)C)C(=O)N2CCC[C@H]2C(=O)N[C@@H](Cc2cccs2)C(=O)N[C@@H](C(C)(C)C)C(=O)N[C@@H](Cc2cccnc2)C1=O [Compound 17, COCCN1CC(=O)N(C)[C@@H](C)C(=O)N[C@@H](Cc2ccc(F)cc2)C(=O)N(C)[C@@H](C)C(=O)N[C@@H](Cc2ccc(Cl)cc2)C(=O)N(C)[C@H](C(C)C)C(=O)N2CCC[C@H]2C(=O)N[C@@H](Cc2cccs2)C(=O)N[C@H](C(=O)N[C@@H](Cc2cccnc2)C1=O)C(C)(C)C] (cyclo([2Thi][Tle][3Pal][Nme][NMeA][Phe(4-F)][NMeA][Phe(4-Cl)][dNMeV]P))",< 1000
11,"COCCN1CC(=O)N[C@@H](Cc2ccc(Cl)cc2)C(=O)N2CCCC[C@@H]2C(=O)N2CCC[C@H]2C(=O)N[C@@H](Cc2ccccc2)C(=O)N[C@@H](C(C)(C)C)C(=O)N[C@@H](Cc2cccnc2)C(=O)N2CCC[C@@H]2C(=O)N(C)[C@@H](C)C(=O)N[C@@H](Cc2ccc(F)cc2)C1=O [Compound 18, COCCN1CC(=O)N[C@@H](Cc2ccc(Cl)cc2)C(=O)N2CCCC[C@@H]2C(=O)N2CCC[C@H]2C(=O)N[C@@H](Cc2ccccc2)C(=O)N[C@H](C(=O)N[C@@H](Cc2cccnc2)C(=O)N2CCC[C@@H]2C(=O)N(C)[C@@H](C)C(=O)N[C@@H](Cc2ccc(F)cc2)C1=O)C(C)(C)C] (cyclo([3Pal][dP][NMeA][Phe(4-F)][Nme][Phe(4-Cl)][dPip]PF[Tle]))",< 1000
